The test system of data set [1] is PC-3 (human prostate adenocarcinoma). In words: Alamar blue cytotoxicity assay, PC-3. The format is cell-based. The conditions noted are these: for IC50: PC-3, Alamar blue, 24-h incubation, mean ± S.E.M. An excerpt:
(§1) Human lung carcinoma (A549, ATCC® CCL-185™), human hepatocellular carcinoma (HepG2, ATCC® HB-8065™), and human breast adenocarcinoma (MDA-MB-231, ATCC® HTB-26™) were obtained from American Type Cell Collection (ATCC). Human melanoma (A-375, BCRJ-0278), Human colorectal adenocarcinoma (Caco-2, BCRJ 0059), human prostate adenocarcinoma (DU-145, BCRJ-0078, and PC-3, BCRJ-0269), human mouth fibroblast (FGH, BCRJ-0089), and human prostate epithelial cells (PNT-2, BCRJ-0366) were obtained from Rio de Janeiro Cells Bank (BCRJ). The cells A549, A-375, Caco-2, DU-145, HepG2, MDA-MB-231, and FGH were cultured in Dulbecco’s Modified Eagle’s Medium (DMEM, Gibco-Invitrogen®), PC-3 and PNT-2 cells were grown in Roswell Park Memorial Institute Medium (RPMI-1640, Gibco-Invitrogen®). Both mediums were supplemented according to the needs of each lineage, as recommended by its cell banks with 2 mM L-glutamine (Gibco-Invitrogen®), 10% or 20% fetal bovine serum (Gibco-Invitrogen®), 1% antibiotic-antimycotic solution (5 mg/ml penicillin, 5 mg/ml streptomycin, and 10 mg/ml neomycin, Gibco-Invitrogen®), and 3.7 g/L of NaHCO3 (Sigma-Aldrich). All cell lines were cultured in flasks at 37°C in 5% CO2 and 96% of relative humidity according to the procedures proposed by ([31]), and a mycoplasma stain kit (Sigma-Aldrich) was used to confirm the use of cells devoid of contamination. The assays were conducted between the third and the seventh-cell passage with sub-cultures every 3 to 4 days to maintain exponential growth. The cell viability was checked using the trypan blue dye exclusion assay for all experiments where over 95% of the cells were viable at the beginning of the tests.
(§2) The in vitro antiproliferative activity was quantified using the Alamar blue® assay, according to the method reported by ([32]). Cells were seeded in 96-well plates for all experiments (1.5 × 10^4 cells/well). After 24 h, the complexes were dissolved in DMSO and added to each well and incubated for 24 h. Dilutions of the complexes were prepared to obtain concentrations ranging from 0.3 to 100 μM. […] DMSO (0.1% v/v) was used as the vehicle control. Following 24 h of incubation, 50 μl of Alamar blue® (resazurin at 0.01% w/v, Sigma-Aldrich) was added to each well, and the plates were incubated, at 37°C, in the dark. Fluorescence reading was performed in a Synergy H1 Fluorescence Spectrophotometer (BioTek®), using excitation and emission filters at wavelengths of 560 and 590 nm, respectively. The fluorescence intensity was measured in arbitrary fluorescence units (AFU) and the AFU of untreated cells (CTL) was considered 100%. The cytotoxic effects of the compounds were estimated in terms of cell proliferation inhibition (%) and expressed as half-maximal inhibitory concentration (IC50). The cell proliferation inhibition percentage of cells exposed to treatments was calculated following: % Inhibition = 100 − (AFU of treated well/AFU of control well) × 100). The IC50 values were calculated from the cell proliferation inhibition percentage by nonlinear regression method using CompusSyn® Software.
A general note: Alamar Blue is a resazurin reagent that responds to reducing activity.

For data set [2], the system named is FGH (human mouth fibroblast). In words: Alamar blue cytotoxicity assay, FGH non-cancer cells. It counts as cell-based. The conditions noted are these: 24-h incubation, mean ± S.E.M.
From the text: as §1, §2

Data set [3] has as its system A549 (human lung carcinoma). In words: Alamar blue cytotoxicity assay, A549. It counts as cell-based. The conditions noted are these: for IC50: A549, Alamar blue, 24-h incubation, mean ± S.E.M.
From the text: as §1, §2

Data set [4] deals with HepG2 (human hepatocellular carcinoma). In words: Alamar blue cytotoxicity assay, HepG2. The format is cell-based. The conditions noted are these: for IC50: HepG2, Alamar blue, 24-h incubation, mean ± S.E.M.
From the text: as §1, §2

A further data set relates to DU-145 cells. In words: Clonogenic assay. The format is cell-based, human. The conditions noted are these: 24 h treatment, colonies after 7 days. The procedure:
The clonogenic assay was performed in accordance with the guidelines of ([34]). […] DMSO (0.1% v/v) was used as the vehicle control. After 24 h, the cells were washed with PBS (Gibco-Invitrogen®) and harvested by trypsinization. Cells were counted using a Neubauer chamber and replated then on cell culture dishes of 21.5 cm^2 in a density of 200 cells per culture dish for each treatment in triplicate. After 7 days, cells were fixed in ice-cold methanol: acetic acid: distilled water (1:1:8), air-dried, and stained with crystal violet (0.5% w/v, Sigma-Aldrich) for 20 min. Colonies with at least 50 cells were counted. Plating efficiency (PE) of DU-145 cells was calculated by the ratio of the number of colonies observed after 7 days of incubation to the number of cells seeded (two hundred). The average of colonies in control was considered as 100%, and the number of colonies that arise after treatment of cells is called the surviving fraction (SF), obtained by:
SF = Numberofcoloniescountedineachtreatment/Numberofcoloniescountedincontrol x PE × 100

Data set [5] is described as follows: Partition coefficient (n-octanol/water), shake-flask method. It counts as physicochemical. The conditions noted are these: 24 h, 37°C, triplicate. The procedure: The octanol-water partition coefficients (log P) were quantified using the shake-flask method ([30]). Each complex was tested in a mixture of equal volumes of water and n-octanol with continuous shaking for 24 h at 112g and 37°C. Then the samples were centrifuged for 5 min at 10g, and the organic and aqueous phases were separated. The concentration of complex in each phase was measured spectrophotometrically to determine values of […]. The experiments were carried out in triplicate.

Data set [6] concerns MDA-MB-231 (human breast adenocarcinoma). In words: Alamar blue cytotoxicity assay, MDA-MB-231. The conditions noted are these: for IC50: MDA-MB-231, Alamar blue, 24-h incubation, mean ± S.E.M. It counts as cell-based.
From the text: as §1, §2

The mark [7] stands for this setting: SI = IC50[FGH]/IC50[MDA-MB-231].
[8] abbreviates: SI = IC50[PNT-2]/IC50[MDA-MB-231].

With `CC(C)=CCC1=C([O-])C(=O)c2ccccc2C1=O.F[P-](F)(F)(F)(F)F.[Ru+2].c1ccc(-c2ccccn2)nc1.c1ccc(P(CP(c2ccccc2)c2ccccc2)c2ccccc2)cc1` [complex (1), [Ru(Lap)(dppm)(bipy)]PF6], the IC50 in data set [1] was 1.3 ± 0.4 µM; in data set [2], 3.1 ± 0.2 µM; in data set [3], 3.3 ± 0.4 µM; in data set [4], 1.7 ± 0.5 µM; in data set [6], 2.1 ± 0.4 µM. The “Selectivity index (SI)” value stood at 2.4 in data set [1] (SI = IC50[FGH]/IC50[PC-3]); 4.5 in data set [1] (SI = IC50[PNT-2]/IC50[PC-3]); 0.9 in data set [3] (SI = IC50[FGH]/IC50[A549]); 1.8 in data set [3] (SI = IC50[PNT-2]/IC50[A549]); 1.8 in data set [4] (SI = IC50[FGH]/IC50[HepG2]); 3.5 in data set [4] (SI = IC50[PNT-2]/IC50[HepG2]). Further, the “Selectivity index (SI)” value in data set [6] (setting [7]) is listed as 1.5; in data set [6] (setting [8]), 2.8. For the same molecule, the “survival fraction (SF)” value was found to be 65.1% with DU-145 cells (DU-145, 0.125 μM); 35.1% in the data set on DU-145 cells (DU-145, 0.25 μM); 18.3% in the data set on DU-145 cells (DU-145, 0.5 μM); 9.0% with DU-145 cells (DU-145, 1.0 μM); 4.3% with DU-145 cells (DU-145, 1.5 μM). In data set [5], the “log P(o/w)” value was 0.617 ± 0.014.

`CC(C)=CCC1=C([O-])C(=O)c2ccccc2C1=O.F[P-](F)(F)(F)(F)F.[Ru+2].c1ccc(P(CP(c2ccccc2)c2ccccc2)c2ccccc2)cc1.c1cnc2c(c1)ccc1cccnc12` [complex (2), [Ru(Lap)(dppm)(phen)]PF6]: the concentration for half-maximal inhibition (IC50) in data set [1] came to 1.1 ± 0.3 µM; in data set [2] it was 2.5 ± 0.3 µM; in data set [3], 2.6 ± 0.1 µM; in data set [4] it was 1.5 ± 0.2 µM; in data set [6] it was 2 µM. For the same molecule, the “Selectivity index (SI)” value is listed as 2.2 in data set [1] (SI = IC50[FGH]/IC50[PC-3]); 6.2 in data set [1] (SI = IC50[PNT-2]/IC50[PC-3]); 1.0 in data set [3] (SI = IC50[FGH]/IC50[A549]); 2.6 in data set [3] (SI = IC50[PNT-2]/IC50[A549]); 1.7 in data set [4] (SI = IC50[FGH]/IC50[HepG2]); 4.5 in data set [4] (SI = IC50[PNT-2]/IC50[HepG2]). The “Selectivity index (SI)” value came out at 1.2 in data set [6] (setting [7]) and 3.4 in data set [6] (setting [8]). The “survival fraction (SF)” value turned out to be 58.0% in the data set on DU-145 cells (DU-145, 0.125 μM); 17.7% with DU-145 cells (DU-145, 0.25 μM); 4.3% with DU-145 cells (DU-145, 0.5 μM); 0% in the data set with DU-145 cells (DU-145, 1.0 μM); 0% in the data set with DU-145 cells (DU-145, 1.5 μM). Further, the “log P(o/w)” value in data set [5] was 0.839 ± 0.007.

What is called IC50 is the concentration at which inhibition is half-maximal.

Values taken from article PMC8264259, “A Novel Ruthenium(II) Complex With Lapachol Induces G2/M Phase Arrest Through Aurora-B Kinase Down-Regulation and ROS-Mediated Apoptosis in Human Prostate Adenocarcinoma Cells” (Frontiers in Oncology, 2021).
